Reference: ChEMBL document CHEMBL1201862, “PubChem BioAssay data set” (2004)
The source made the active and inactive calls.

Tests used:
[1] = molecular target: T1, Mannose-6-phosphate isomerase (Homo sapiens, UniProt P34949); assay: inhibitors of human PMI, primary screen, biochemical, fluorescence intensity, coupled assay (AID 1209)
T1 sequence (P34949 whole entry): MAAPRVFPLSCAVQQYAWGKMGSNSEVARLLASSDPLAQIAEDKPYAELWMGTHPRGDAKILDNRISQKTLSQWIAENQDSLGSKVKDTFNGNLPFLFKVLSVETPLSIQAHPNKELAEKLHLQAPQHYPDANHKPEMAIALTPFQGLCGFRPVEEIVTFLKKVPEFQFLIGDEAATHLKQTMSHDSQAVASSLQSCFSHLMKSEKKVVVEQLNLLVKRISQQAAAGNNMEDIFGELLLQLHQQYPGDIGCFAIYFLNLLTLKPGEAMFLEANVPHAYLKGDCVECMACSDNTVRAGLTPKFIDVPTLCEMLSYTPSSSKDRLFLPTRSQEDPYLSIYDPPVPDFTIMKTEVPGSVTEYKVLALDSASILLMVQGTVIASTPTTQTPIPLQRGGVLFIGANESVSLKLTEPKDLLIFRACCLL

[2] = molecular target: T2, Heat shock factor protein 1 (Mus musculus, UniProt P38532); assay: HSF1 potentiators in luciferase reporter cells, confirmation, cell-based, NIH3T3, luminescence, dose retest (AID 435004); type: functional;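 also: stress induced by proteasome inhibitor MG132 added 30 min after compound; luciferase reporter driven by HSF1 response element in NIH3T3 cells; actives raise luminescence as potentiators of the MG132 stress response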
T2 sequence (P38532 whole entry): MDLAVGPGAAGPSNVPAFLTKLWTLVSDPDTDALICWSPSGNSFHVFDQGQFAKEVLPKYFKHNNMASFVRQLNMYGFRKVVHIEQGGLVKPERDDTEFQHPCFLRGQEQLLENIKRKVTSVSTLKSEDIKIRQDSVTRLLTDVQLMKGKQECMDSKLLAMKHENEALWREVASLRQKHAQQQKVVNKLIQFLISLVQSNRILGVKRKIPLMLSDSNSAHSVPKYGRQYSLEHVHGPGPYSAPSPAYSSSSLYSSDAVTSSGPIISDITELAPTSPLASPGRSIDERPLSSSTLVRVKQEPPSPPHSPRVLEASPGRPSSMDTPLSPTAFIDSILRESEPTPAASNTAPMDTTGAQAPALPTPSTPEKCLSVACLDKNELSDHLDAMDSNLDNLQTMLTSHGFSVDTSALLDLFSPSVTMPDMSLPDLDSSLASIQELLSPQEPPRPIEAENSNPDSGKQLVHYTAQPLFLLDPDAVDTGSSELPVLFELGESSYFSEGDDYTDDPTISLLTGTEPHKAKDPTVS

[3] = LGR2 antagonists, dose response, cell-based, HEK293, CRE-luciferase reporter, cherry pick, set 2 (AID 743343); type: functional;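 also: transfected cells were stimulated with diluted bursicon conditioned medium after compound addition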
[4] = A549 cell cytotoxicity, dose response, cytotoxicity control, plate reader, cherry-pick, antagonist series (AID 743412); type: functional, cell-based
[5] = HEK293 cell cytotoxicity, dose response, cytotoxicity control, plate reader, cherry-picked samples (AID 743446); type: functional, cell-based
[6] = molecular target: T3, Carboxy-terminal domain RNA polymerase II polypeptide A small phosphatase 1 (Homo sapiens, UniProt Q9GZU7); assay: inhibitors of CTDSP1, concentration-response testing, biochemical assay, absorbance-based, actives from ultra-high-throughput screening (AID 540297); type: functional
T3 sequence (Q9GZU7 whole entry): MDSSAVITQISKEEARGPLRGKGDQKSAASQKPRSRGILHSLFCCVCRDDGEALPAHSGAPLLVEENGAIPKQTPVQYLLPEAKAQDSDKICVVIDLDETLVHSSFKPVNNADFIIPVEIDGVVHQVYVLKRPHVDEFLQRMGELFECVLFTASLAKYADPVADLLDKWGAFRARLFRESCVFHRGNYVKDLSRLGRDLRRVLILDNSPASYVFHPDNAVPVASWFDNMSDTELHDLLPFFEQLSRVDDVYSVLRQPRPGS

Estrogen receptor = molecular target: T4, Estrogen receptor (Homo sapiens, UniProt P03372);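 also: potency for inhibiting coactivator peptide recruitment to the receptor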
T4 sequence (P03372 whole entry): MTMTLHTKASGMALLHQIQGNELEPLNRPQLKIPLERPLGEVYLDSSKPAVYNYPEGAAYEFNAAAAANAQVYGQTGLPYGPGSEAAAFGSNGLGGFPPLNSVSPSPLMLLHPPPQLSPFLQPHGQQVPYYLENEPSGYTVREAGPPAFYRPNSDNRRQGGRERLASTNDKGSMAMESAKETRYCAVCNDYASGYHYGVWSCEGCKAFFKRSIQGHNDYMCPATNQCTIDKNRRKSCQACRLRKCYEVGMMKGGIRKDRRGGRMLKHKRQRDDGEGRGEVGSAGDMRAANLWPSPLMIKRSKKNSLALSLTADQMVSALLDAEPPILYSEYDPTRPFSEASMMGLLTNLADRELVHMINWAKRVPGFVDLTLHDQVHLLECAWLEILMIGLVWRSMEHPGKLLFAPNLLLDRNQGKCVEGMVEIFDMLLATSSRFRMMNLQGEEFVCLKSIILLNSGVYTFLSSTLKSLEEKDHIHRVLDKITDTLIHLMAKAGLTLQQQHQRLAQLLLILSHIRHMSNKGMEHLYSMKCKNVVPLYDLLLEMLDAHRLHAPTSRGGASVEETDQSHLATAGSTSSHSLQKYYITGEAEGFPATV

Estrogen receptor beta [7] = molecular target: T5, Estrogen receptor beta (Homo sapiens, UniProt Q92731);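 also: recombinant ER-beta bound to coactivator SRC1 peptide in presence of estradiol agonist; inhibitors block coactivator peptide binding and lower the FRET signal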
Estrogen receptor beta [8] = molecular target: T5, Estrogen receptor beta; assay: ERβ–SRC-3 coactivator interaction inhibitors, confirmation, orthogonal assay, biochemical, ELISA, streptavidin-HRP readout (AID 1060)
Prothrombin = Prothrombin (Homo sapiens, UniProt P00734); assay: Thrombin 1536 HTS Dose Response Confirmation. [Related pubchem assays: 1046 (Thrombin 1536 HTS; hits were confirmed in this assay)]; type: functional
[9] = inhibitors of Vif binding to APOBEC3G peptide, primary screen, biochemical, TR-FRET, GST-Vif 1-94, biotin-A3G peptide, dose response retest (AID 1117319); type: functional;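 also: TR-FRET signal of purified GST-Vif binding a biotinylated A3G peptide; inhibitors lower the FRET signal by blocking Vif and A3G binding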
[10] = molecular target: Induced myeloid leukemia cell differentiation protein Mcl-1 (Homo sapiens, UniProt Q07820); type: functional
Protein skinhead-1 = molecular target: T6, Protein skinhead-1 (Caenorhabditis elegans, UniProt P34707); type: functional
T6 sequence (P34707 whole entry): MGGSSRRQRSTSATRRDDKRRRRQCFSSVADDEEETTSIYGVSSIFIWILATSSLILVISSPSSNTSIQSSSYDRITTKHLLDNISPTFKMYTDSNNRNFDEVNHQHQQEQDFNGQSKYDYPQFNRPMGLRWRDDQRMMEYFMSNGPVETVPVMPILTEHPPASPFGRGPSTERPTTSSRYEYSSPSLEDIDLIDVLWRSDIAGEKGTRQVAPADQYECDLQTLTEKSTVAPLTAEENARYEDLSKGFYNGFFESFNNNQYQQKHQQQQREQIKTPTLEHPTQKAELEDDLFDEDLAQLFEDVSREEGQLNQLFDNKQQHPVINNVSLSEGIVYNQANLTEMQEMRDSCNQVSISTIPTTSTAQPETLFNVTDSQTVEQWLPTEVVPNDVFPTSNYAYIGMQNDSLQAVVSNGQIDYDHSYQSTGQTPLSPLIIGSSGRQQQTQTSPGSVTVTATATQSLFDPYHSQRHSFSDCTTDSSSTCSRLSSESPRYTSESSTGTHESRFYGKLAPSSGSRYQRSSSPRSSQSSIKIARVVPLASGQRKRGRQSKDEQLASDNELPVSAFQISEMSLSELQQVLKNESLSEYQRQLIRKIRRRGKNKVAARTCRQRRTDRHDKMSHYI

[11] = MC4R antagonists, dose response, counter-screen for LGR2 antagonist project, cell-based, plate reader, cherry pick (AID 743444); type: functional;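 also: transfected HEK 293 cells stimulated with alpha-MSH peptide; potency of inhibitors of the alpha-MSH evoked signal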
[12] = Luminescence Cell-Based Dose Confirmation HTS to Identify Inhibitors of Platelet Dense Granule Release. [Related pubchem assays: 1663 (Primary HTS), 1678 (Summary of Project)]; type: functional
[13] = Luminescence Cell-Based Dose Retest to Confirm Inhibitors of Cancer Stem Cells. [Related pubchem assays (depositor defined):AID2717, AID2721]; type: functional; conditions: Homo sapiens
[14] = cytotoxicity toward NIH3T3 fibroblasts, dose response, counter-screen, cell-based, ATP luminescence, mouse fibroblasts (AID 2010); type: functional;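 also: cells exposed to compound for about 90 hours before reading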
[15] = inhibitors of intracellular T. cruzi replication, confirmation, NIH3T3 host cells, beta-gal luminescence (AID 2044); type: functional, cell-based;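 also: intracellular parasites grown in NIH/3T3 mouse fibroblasts as host cells; luminescent beta-galactosidase reporter signal from transgenic T. cruzi replicating inside host cells; inhibitors lower the luminescence signal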
[16] = molecular target: T7, Small ubiquitin-related modifier 1 (Homo sapiens, UniProt P63165); assay: inhibitors of SUMO1 peptide binding, dose response, biochemical, fluorescence polarization, uHTS hits (AID 624382); type: functional; conditions: read-out: IC50_Mean
Kallikrein-7 = Kallikrein-7 (Homo sapiens, UniProt P49862); assay: Fluorescence Intensity-based biochemical primary high throughput dose response assay to identify activators of kallikrein-7 (K7) zymogen.
[17] = molecular target: Luciferin 4-monooxygenase (Photinus pyralis, UniProt P08659); assay: firefly luciferase enzyme inhibitors, dose response, biochemical, luminescence (AID 1891)
[18] = molecular target: T7, Small ubiquitin-related modifier 1; assay: inhibitors of SUMO1 partner interactions, dose response, biochemical, FRET (AID 624383); type: functional; conditions: read-out: IC50_Mean
[19] = molecular target: T8, Low molecular weight phosphotyrosine protein phosphatase (Homo sapiens, UniProt P24666); type: functional; conditions: read-out: IC50_Mean
T8 sequence (P24666 whole entry): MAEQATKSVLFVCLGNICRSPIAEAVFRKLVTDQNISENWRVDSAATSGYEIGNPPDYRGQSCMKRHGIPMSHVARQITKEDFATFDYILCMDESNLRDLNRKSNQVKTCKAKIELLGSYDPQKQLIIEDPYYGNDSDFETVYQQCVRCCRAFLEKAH

H4 = assay: Luminescence Cell-Based Dose Response HTS to Identify Activators of 5'UTR Stem-Loop Driven Prion Protein mRNA Translation in H4 Neuroglioblastoma Cells. [Related pubchem assays: 1829 (Project Summary), 1814 (Primary HTS)]; type: functional; conditions: Homo sapiens
[20] = molecular target: T8, Low molecular weight phosphotyrosine protein phosphatase; type: functional; conditions: read-out: IC50_Mean; remark: listed apart in the source
[21] = P. falciparum Dd2 growth inhibitors, dose response, SYBR Green, dry powder samples (AID 1159566); type: functional, cell-based;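 also: potency for growth inhibition with lower SYBR green DNA signal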
[22] = P. falciparum Dd2 growth inhibitors, dose response, SYBR Green, cherry-picked samples (AID 1159567); type: functional, cell-based
[23] = P. falciparum 3D7-ScDHODH growth inhibitors, dose response, SYBR Green, dry powder samples (AID 1159570); type: functional, cell-based;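 also: parasite growth measured after 72 hours of compound exposure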
[24] = P. falciparum ATP4 D1247Y mutant growth inhibitors, dose response, NITD609-resistant line, SYBR Green, dry powder (AID 1159571); type: functional, cell-based;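 also: parasites synchronized at ring stage by sorbitol before testing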

T5 sequence (Q92731 whole entry): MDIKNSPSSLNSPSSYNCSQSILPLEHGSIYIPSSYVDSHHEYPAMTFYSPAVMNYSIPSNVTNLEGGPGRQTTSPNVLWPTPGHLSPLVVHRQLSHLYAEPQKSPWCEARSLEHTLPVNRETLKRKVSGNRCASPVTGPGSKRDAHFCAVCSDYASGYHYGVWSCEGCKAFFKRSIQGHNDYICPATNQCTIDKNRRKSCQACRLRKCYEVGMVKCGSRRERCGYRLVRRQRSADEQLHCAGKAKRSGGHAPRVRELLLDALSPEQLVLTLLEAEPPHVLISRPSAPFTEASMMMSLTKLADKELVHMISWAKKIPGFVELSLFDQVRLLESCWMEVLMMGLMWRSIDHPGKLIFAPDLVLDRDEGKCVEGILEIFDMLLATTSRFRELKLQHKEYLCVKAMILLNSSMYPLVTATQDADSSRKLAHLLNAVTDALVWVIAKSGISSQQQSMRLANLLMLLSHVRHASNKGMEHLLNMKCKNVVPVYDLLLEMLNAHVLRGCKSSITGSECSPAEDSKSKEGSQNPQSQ
T7 sequence (P63165 whole entry): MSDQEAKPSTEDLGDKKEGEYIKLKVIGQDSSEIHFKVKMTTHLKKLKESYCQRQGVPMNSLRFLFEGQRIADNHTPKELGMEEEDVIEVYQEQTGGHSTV
Induced myeloid leukemia cell differentiation protein Mcl-1, sequence (Q07820 whole entry): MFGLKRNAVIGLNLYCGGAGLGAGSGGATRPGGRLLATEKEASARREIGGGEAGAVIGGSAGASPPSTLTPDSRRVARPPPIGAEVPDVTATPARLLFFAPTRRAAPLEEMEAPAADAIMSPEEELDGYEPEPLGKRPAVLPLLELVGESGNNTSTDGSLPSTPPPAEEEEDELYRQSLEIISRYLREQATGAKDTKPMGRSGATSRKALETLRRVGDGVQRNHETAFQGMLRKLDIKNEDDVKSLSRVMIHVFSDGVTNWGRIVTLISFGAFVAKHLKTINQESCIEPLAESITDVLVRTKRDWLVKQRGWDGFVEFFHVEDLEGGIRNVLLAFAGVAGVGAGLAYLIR
Kallikrein-7, sequence (P49862 whole entry): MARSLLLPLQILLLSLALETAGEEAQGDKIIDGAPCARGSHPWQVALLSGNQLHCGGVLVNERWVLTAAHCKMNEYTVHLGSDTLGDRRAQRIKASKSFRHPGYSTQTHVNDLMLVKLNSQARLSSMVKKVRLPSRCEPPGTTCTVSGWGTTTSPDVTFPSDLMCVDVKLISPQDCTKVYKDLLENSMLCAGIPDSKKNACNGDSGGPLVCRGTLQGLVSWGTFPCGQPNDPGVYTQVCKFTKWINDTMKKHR
Luciferin 4-monooxygenase, sequence (P08659 whole entry): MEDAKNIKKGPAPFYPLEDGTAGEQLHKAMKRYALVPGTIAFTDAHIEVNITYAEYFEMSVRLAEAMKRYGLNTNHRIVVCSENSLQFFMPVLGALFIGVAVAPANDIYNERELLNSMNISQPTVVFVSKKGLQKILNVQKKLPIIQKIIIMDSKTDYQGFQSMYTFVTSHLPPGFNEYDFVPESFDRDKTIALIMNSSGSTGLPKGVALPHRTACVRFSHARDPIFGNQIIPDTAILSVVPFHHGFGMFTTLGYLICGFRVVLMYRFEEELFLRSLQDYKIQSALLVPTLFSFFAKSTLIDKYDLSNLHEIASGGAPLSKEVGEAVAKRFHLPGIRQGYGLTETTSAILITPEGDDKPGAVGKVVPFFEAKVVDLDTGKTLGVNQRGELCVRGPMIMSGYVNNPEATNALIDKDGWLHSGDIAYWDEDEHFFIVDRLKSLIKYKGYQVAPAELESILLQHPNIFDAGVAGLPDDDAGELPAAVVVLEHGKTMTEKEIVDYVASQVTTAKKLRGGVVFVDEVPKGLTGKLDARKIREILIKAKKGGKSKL

CC1=NN2C(=N)/C(=C\c3ccc(SCc4ccccc4)o3)C(=O)N=C2S1
IC50 [1]: > 50 µM (not active)

COc1cc2c(cc1OC)CN(c1ccc([N+](=O)[O-])c(C(F)(F)F)c1)CC2
EC50 [2]: 43.1 µM (active)
AC50 [3]: 29.6 µM (active)
AC50 [4]: > 52 µM (inactive)
AC50 [5]: > 52 µM (inactive)

CC1CCc2c(sc(NC(=O)c3ccc(Cn4cc([N+](=O)[O-])cn4)o3)c2C#N)C1 (configuration not stated)
IC50 [6]: 4.29 µM (active)
IC50 (Estrogen receptor): 8.35 µM (active)
IC50 (Estrogen receptor beta [7]): 2.32 µM (active)
IC50 (Estrogen receptor beta [8]): 11.1 µM (not active)

Cc1ccc(C)n1-c1ccc(-c2nnco2)cc1
IC50 (Prothrombin): > 50 µM (not active)

CN1C(=O)CC(N2CCN(C(=O)c3ccccc3)CC2)C1=O (configuration not stated)
IC50 [9]: > 100 µM (active)

Cc1cc(=O)[nH]c(SCC(=O)NCC2CCCO2)n1 (configuration not stated)
IC50 (Prothrombin): > 50 µM (not active)

O=C1CC(N2CCN(S(=O)(=O)c3ccccc3)CC2)C(=O)N1c1ccccc1 (configuration not stated)
IC50 [10]: 9.4 µM (not active)

C=CCn1c(COc2ccccc2F)nnc1SCC(=O)NC(=O)NCc1ccco1
IC50 [6]: 12.2 µM (active)
IC50 (Estrogen receptor beta [7]): 3.27 µM (active)
IC50 (Estrogen receptor beta [8]): > 50 µM (not active)

Clc1ccc(-c2cc(-c3ccccn3)on2)c(Cl)c1
IC50 (Protein skinhead-1): > 100 µM (inactive)
AC50 [3]: 3.73 µM (active)
AC50 [11]: 7.08 µM (active)
AC50 [4]: > 52 µM (inactive)
AC50 [5]: > 52 µM (inactive)

CCOC(=O)CSc1nnc(CNC(=O)c2ccc(S(=O)(=O)N3CCCC3)cc2)n1C
IC50 (Prothrombin): > 50 µM (not active)

Cc1ccc(S(=O)(=O)N2CCN(Cc3nc(O)c4c(C)c(C)sc4n3)CC2)cc1
IC50 [9]: > 100 µM (active)

O=C(Nc1ccc2c(c1)OCO2)c1cc(-c2ccc(O)cc2)on1
EC50 [12]: > 112 µM (not active)
AC50 [13]: 0.356 µM (active)
EC50 [14]: 6.74 µM (active)
EC50 [15]: < 0.1 µM (active)
EC50 (cells): > 10 µM (not active)
IC50 [16]: > 66.6 µM (inactive)
EC50 (Kallikrein-7): 62.9 µM (inactive)
EC50 [17]: > 112 µM (not active)
IC50 [18]: 11.5 µM (active)

O=c1c(Cl)c(N/N=C/c2ccc(Cl)cc2)cnn1-c1ccccc1
IC50 [19]: 35 µM (inactive)
IC50 [10]: 1.93 µM (active)
EC50 (H4): > 120 µM (not active)
IC50 [20]: > 80 µM (inactive)

COCC#Cc1ccc(CC[C@H]2O[C@H]3CC[C@H](CO)O[C@H]3C[C@@H]2n2cc(C3CC3)nn2)cc1
AC50 [21]: 2.15 µM (active)
AC50 [22]: 2.33 µM (active)
AC50 [23]: 3.37 µM (active)
AC50 [24]: 3.76 µM (active)

OC[C@H]1Nc2ccc(C#Cc3cccnc3)cc2[C@H]2NCC[C@H]21
AC50 [21]: 7.59 µM (active)
AC50 [22]: 1.08 µM (active)
AC50 [23]: 8.84 µM (active)
AC50 [24]: 11.2 µM (active)

CC[n+]1ccccc1/C=C1\Sc2ccc(C)cc2N1C
EC50 [14]: > 60 µM (not active)
EC50 [15]: < 0.1 µM (active)
EC50 (cells): 0.022 µM (active)
